# Data reported in patent US5700906A, “Immunogenic peptide antigen corresponding to plasmodium vivax circumsporozoite protein” (New York University, priority 1987, dated 1997).
# Like-named read-outs stand apart in the source and are kept apart here. Where no end group is shown, it is not given here.
# Assays:
# [1] = tested on: monoclonal antibody 2G3; assay: Two-site immunoradiometric assay performed with monoclonal antibody 2G3 and synthetic peptides; assay type: binding
# Procedure: The two synthetic peptides described in Example 7 were used in these studies. One of them was composed of the 12 amino acid sequence. H2 N-GlnAIaGlnGlyAspGlyAlaAsnAlaGlyGlnPro-COOH (12-MER) and the other was a dimer of the same sequence (24-MER). […] The assay was performed as follows:
# Wells of microtiter plates (Falcon 3911) were incubated overnight at 4° C. with 50 μl of a 10 μg/ml solution in PBS of the monoclonal 2G3 anti-CS protein of P. knowlesi. The wells were washed with PBS and then incubated for 2 hours at room temperature, with PBS-Tween 20 (0.05% (w/v), and then for 3 additional hours with PBS-BSA (1% (w/v)). The synthetic peptides were diluted serially in PBS-BSA-Tween 20, and 30 μl aliquots of the dilutions were delivered to the bottom of individual wells. The plates were incubated overnight in the refrigerator, washed with PBS-BSA-Tween 20, and incubated with […] (10 ng) of ^125 I-labeled monoclonal antibody 2G3 diluted in PBS-BSA-Tween 20 (about 100,000 cpm). Controls consisted of plates coated with a non-relevant monoclonal antibody of the same isotype as 2G3.
# [2] = tested on: binding of monoclonal antibody (2G3) to the CS protein of P. knowlesi; assay: 12-MER inhibition of binding of monoclonal antibody 2G3 to the CS protein of P. knowlesi
# Source text: Wells of microtiter plates were coated with the monoclonal antibody 2G3 washed with Tween-20, saturated with BSA as described supra. In one series of tubes, the 12-MER was serially diluted in PBS-BSA-Tween 20. In a second series of tubes, an extract of P. knowlesi sporozoites (prepared as described by Cochrane et al., supra) was serially diluted in PBS-BSA-Tween20. Aliquots of each dilution of sporozoites were mixed with equal volumes of all dilutions of 12-MER. 30 μI of these mixtures were then added to the bottom of the 2G3-coated wells. As positive and negative controls, 30 μl aliquots of sporozoite dilutions mixed with PBS-BSA-Tween 20 were added to other wells which had been precoated with 2G3 or with a non-relevant monoclonal antibody. After overnight incubation in the refrigerator, the wells were washed and 50 μl ([…]) of ^125 I-labeled 2G3 diluted in PBS-BSA-Tween 20 were added. Following an additional incubation at room temperature for 1 hour, the wells were washed and counted in a gamma counter.
# [3] = tested on: porcine elastase; assay: Elastase treatment of CS protein, reactivity with monoclonal antibodies; assay type: biochemical
# Source text: (c) One possible reading frame coded for an alanine-rich peptide.
# [4] = tested on: binding of monoclonal antibody 2F2 to immobilized P. vivax sporozoite extract; assay: Inhibition of the binding of labelled monoclonal antibody 2F2 to immobilized P. vivax extracts; conditions: at 0: 16,387 ± 1,085 cpm
# Procedure: 100,000 cpm of 2F2 antibody labelled by ^125 I having a specific activity of about 2×10^6 cpm/microgram was diluted in PBS containing 1% BSA. The buffer also contained varying amounts of the synthetic peptide. The mixture was added to microtiter wells coated with P. vivax sporozoite extract. After one hour incubation in room temperature, the wells were washed three times with PBS containing 1% BSA and counted in the gamma counter.
# [5] = tested on: binding of a monoclonal antibody to extracts of sporozoites from a New Guinea vivax malaria; assay: Competition of peptide with monoclonal antibody binding to New Guinea vivax sporozoite extracts; set-up: species or system P. vivax
# Source text: Thus, although the P. vivax CS gene was isolated from a Brazilian strain of P. vivax, the epitope deduced from the sequence of the cloned gene appears to be present in all P. vivax CS proteins so far studied. The characterization of this gene and its encoded amino acid sequence allows synthesis of large amounts of the repetitive epitope and other antigenically active regions of the P. vivax CS protein and development of a protective vaccine using peptides corresponding to such regions.
# [6] = tested on: monoclonal antibody 2F2; assay: Inhibition of 2F2 binding to immobilized (DRADGQPAG)2 by synthetic peptides; conditions: competing peptide 25 micrograms/ml
# Source text: (§1) Monoclonal-antibody 2F2 from Example 5 was serially diluted in PBS-BSA (indicated in FIG. 5 by black triangles); or in PBS-BSA containing 25 micrograins/ml of synthetic peptide (NANP)3 (indicated by open triangles); or in PBS-BSA containing 25 micrograms/ml of the synthetic peptide of Example 4, i.e. (DRADGQPAG)2 (indicated by black circles).
# (§2) An unrelated monoclonal-antibody 2AlO (anti-falciparum CS protein) was serially diluted in PBS-BSA (indicated by open squares). […] of each dilution were delivered to the bottom of microtiter plates which had previously been coated with a synthetic peptide (DRADGQPAG)2 saturated with 1% BSA. After 1 hour of incubation, the wells were washed with PBS-BSA in 50 microliters of ^125 I-labelled affinity-purified goat anti-mouse IgG (10^5 cpm; specific activity about 2×10^6 cpm/microgram). After an additional hour of incubation, the wells were washed with PBS-BSA and counted.
# [7] = tested on: anti-P. falciparum antibody 2AlO; assay: Inhibition of binding of anti-P. falciparum antibody 2A10 to (NANP)3
# Source text: as §1, §2
# In other similar experiments, the binding of the anti-P. falciparum antibody 2AlO to the corresponding epitope (NANP)3 was not inhibited by the synthetic peptide (DRADGQPAG)2.^1
substance,measurement,setting,value
"QAQGDGANAGQP [12-MER, H2 N-GlnAIaGlnGlyAspGlyAlaAsnAlaGlyGlnPro-COOH]",two-site radioimmunoassay reactivity,[1]; monoclonal antibody to P. knowlesi CS protein,did not bind
same,Amount of radiolabeled 2G3 bound,[1]; peptide 5 ug/ml,40 cpm
same,Amount of radiolabeled 2G3 bound,[1]; peptide 50 ug/ml,103 cpm
same,Amount of radiolabeled 2G3 bound,[1]; peptide 500 ug/ml,157 cpm
same,Amount of radiolabeled 2G3 bound,[1]; peptide .5 ug/ml,0 cpm
same,inhibition of interaction of P. knowlesi CS protein with monoclonal antibody,[2],"inhibited, in a dose-dependent fashion"
same,Amount of 2G3 bound in the presence of 12-MER inhibitor,"[2]; 10^3 sporozoites/ml, 12-MER 0.08 mg/ml, 156 cpm at 0",72 cpm
same,Amount of 2G3 bound in the presence of 12-MER inhibitor,"[2]; 10^3 sporozoites/ml, 12-MER 0.6 mg/ml, 156 cpm at 0",0 cpm
same,Amount of 2G3 bound in the presence of 12-MER inhibitor,"[2]; 10^3 sporozoites/ml, 12-MER 5.0 mg/ml, 156 cpm at 0",37 cpm
same,Amount of 2G3 bound in the presence of 12-MER inhibitor,"[2]; 10^4 sporozoites/ml, 12-MER 0.08 mg/ml, 1353 cpm at 0",102 cpm
same,Amount of 2G3 bound in the presence of 12-MER inhibitor,"[2]; 10^4 sporozoites/ml, 12-MER 0.6 mg/ml, 1353 cpm at 0",70 cpm
same,Amount of 2G3 bound in the presence of 12-MER inhibitor,"[2]; 10^4 sporozoites/ml, 12-MER 5.0 mg/ml, 1353 cpm at 0",3 cpm
same,Amount of 2G3 bound in the presence of 12-MER inhibitor,"[2]; 10^5 sporozoites/ml, 12-MER 0.08 mg/ml, 4390 cpm at 0",1221 cpm
same,Amount of 2G3 bound in the presence of 12-MER inhibitor,"[2]; 10^5 sporozoites/ml, 12-MER 0.6 mg/ml, 4390 cpm at 0",781 cpm
same,Amount of 2G3 bound in the presence of 12-MER inhibitor,"[2]; 10^5 sporozoites/ml, 12-MER 5.0 mg/ml, 4390 cpm at 0",361 cpm
same,Amount of 2G3 bound in the presence of 12-MER inhibitor,"[2]; 10^6 sporozoites/ml, 12-MER 0.08 mg/ml, 5582 cpm at 0",3893 cpm
same,Amount of 2G3 bound in the presence of 12-MER inhibitor,"[2]; 10^6 sporozoites/ml, 12-MER 0.6 mg/ml, 5582 cpm at 0",3018 cpm
same,Amount of 2G3 bound in the presence of 12-MER inhibitor,"[2]; 10^6 sporozoites/ml, 12-MER 5.0 mg/ml, 5582 cpm at 0",1099 cpm
same,inhibition of interaction of P. knowlesi CS protein with monoclonal antibody,[2]; listed as monomer,compete with and specifically inhibit
OOC-Ala Ala Pro Ala,inactivation of CS protein by elastase in presence of inhibitor,[3],reversed
H-(Asp-Gly-Gln-Pro-Ala-Gly-Asp-Arg-Ala)2 [(DRADGQPAG)2],Bound 125I-labeled 2F2,[4]; synthetic peptide 0.2 micrograms/ml,"3,146 cpm"
same,Bound 125I-labeled 2F2,[4]; synthetic peptide 2 micrograms/ml,"2,130 cpm"
same,Bound 125I-labeled 2F2,[4]; synthetic peptide 20 micrograms/ml,"1,091 cpm"
same,Bound 125I-labeled 2F2,"[4]; synthetic peptide 200 micrograms/ml, mean of counts in four wells",842 cpm
same,competition with binding of monoclonal antibody to sporozoite extracts,[5],can compete
same,inhibition of binding of 2F2 to immobilized (DRADGQPAG)2,[6],totally inhibited
same,inhibition of binding of 2AlO to (NANP)3,[7],not inhibited
